Reference: patent US11236081B2, “Crystalline salts of corydalmine” (priority 2018, dated 2022)
“And” between values parts separate entries of the source, which are not always exact repeats. Identical values can stand only once.

What was measured:
[1] = Solubility studies in water at 2 hours; assay type: physicochemical
[2] = Pharmacokinetic study: plasma concentration and plasma PK parameters after IV/PO dosing (LC-MS/MS, WinNonlin); assay type: in vivo, Male SD Rat; details: male SD rat, vehicle 20% HP-β-CD in water (POA, freebase) or water (salts); for F / F, Mean: PO 10 mg/kg (equal to freebase) vs IV 3 mg/kg freebase; for F / concentration in plasma / Tmax / AUCInf / AUClast / AUClast/D / AUC—% Extrap_obs / Cmax / MRTInf_obs / T1/2: individual rats; for F, Mean / concentration in plasma, Mean / AUCInf, Mean / AUClast, Mean / AUClast/D, Mean / AUC—% Extrap_obs, Mean / Cmax, Mean / MRTInf_obs, Mean / T1/2, Mean / Tmax, Mean: mean n=3; for concentration in plasma / concentration in plasma, Mean / Tmax / AUCInf / AUClast / AUClast/D / AUC—% Extrap_obs / Cmax / MRTInf_obs / T1/2 / AUCInf, Mean / AUClast, Mean / AUClast/D, Mean / AUC—% Extrap_obs, Mean / Cmax, Mean / MRTInf_obs, Mean / T1/2, Mean / Tmax, Mean: PO 10 mg/kg (equal to freebase); for Tmax / AUCInf / AUClast / AUClast/D / AUC—% Extrap_obs / Cmax / MRTInf_obs / T1/2 / AUCInf, Mean / AUClast, Mean / AUClast/D, Mean / AUC—% Extrap_obs, Mean / Cmax, Mean / MRTInf_obs, Mean / T1/2, Mean / Tmax, Mean: plasma
From the text: Pharmacokinetic and Brain Penetration Study
Dose formulation processing during dosing: The dose formulations will be kept at room temperature.
Concentrations of Test Article in the plasma samples will be analyzed using a LC-MS/MS method.
WinNonlin (Phoenix™, version 6.1) or other similar software will be used for pharmacokinetic calculations. The following pharmacokinetic parameters will be calculated, whenever possible from the plasma concentration versus time data:
IV administration: T1/2, C0, AUClast, AUCinf, MRTinf, Cl, Vss, Number of Points for Regression.
PO administration: T1/2, Cmax, Tmax, MRTinf, AUCinf, AUClast, F %, Number of Points for Regression.
The pharmacokinetic data will be described using descriptive statistics such as mean, standard deviation.

[3] = Dynamic vapor sorption (DVS), hygroscopicity at 25° C.; assay type: physicochemical; details: for hygroscopicity (DVS) / water absorbed in DVS: 25° C.; for water absorbed in DVS: at 80% RH
Procedure: Dynamic Vapor Sorption (DVS)
DVS was determined using DVS Intrinsic (SMS, UK). Transfer about 20 to 50 mg of the compound into a SMS dynamic vapor sorption model DVS and record the weight change with respect to a varying atmospheric humidity at 25° C.

In the case of `COc1cc2c(cc1OC)[C@@H]1Cc3ccc(O)c(OC)c3CN1CC2.Cl` [TLZ-16 HCl], the solubility in water [1] was “approximately 19.1 mg/mL”, the F ([2]; listed as TLZ-16 HC1) was 35.9% and 20.7% and 24.7% and the “F, Mean” value [2] was 27.1%. For the same compound, the concentration in plasma ([2]; 0 h) was “BLOQ (BLOQ = below limit of quantitation (0.2 ng/mL))”, the concentration in plasma ([2]; 0.25 h, 10 mg/kg) was 236 ng/mL and 239 ng/mL and 385 ng/mL and the “concentration in plasma, Mean” value ([2]; 0.25 h) was 287 ng/mL. The concentration in plasma ([2]; 0.5 h, 10 mg/kg) was 225 ng/mL and 217 ng/mL and 356 ng/mL, the “concentration in plasma, Mean” value ([2]; 0.5 h) was 266 ng/mL and the concentration in plasma ([2]; 1 h, 10 mg/kg) was 130 ng/mL and 149 ng/mL and 173 ng/mL. The “concentration in plasma, Mean” value ([2]; 1 h) was 151 ng/mL, the concentration in plasma ([2]; 2 h, 10 mg/kg) was 135 ng/mL and 129 ng/mL and 115 ng/mL and the “concentration in plasma, Mean” value ([2]; 2 h) was 126 ng/mL. For the same compound, the concentration in plasma ([2]; 4 h, 10 mg/kg) was 109 ng/mL and 60.3 ng/mL and 79.2 ng/mL, the “concentration in plasma, Mean” value ([2]; 4 h) was 82.8 ng/mL and the concentration in plasma ([2]; 8 h, 10 mg/kg) was 44.3 ng/mL and 15.6 ng/mL and 14.1 ng/mL. The “concentration in plasma, Mean” value ([2]; 8 h) was 24.7 ng/mL, the concentration in plasma ([2]; 24 h, 10 mg/kg) was 0.356 ng/mL and BLOQ (BLOQ = below limit of quantitation (0.2 ng/mL)) (2×) and the Tmax [2] was 0.25 h. The AUCInf ([2]; listed as TLZ-16 HC1, 10 mg/kg) was 1217 ng·h/mL and 703 ng·h/mL and 837 ng·h/mL, the AUClast ([2]; listed as TLZ-16 HC1, 10 mg/kg) was 1216 ng·h/mL and 658 ng·h/mL and 798 ng·h/mL and the AUClast/D ([2]; listed as TLZ-16 HC1, 10 mg/kg) was 122 kg·ng·h/mL/mg and 65.8 kg·ng·h/mL/mg and 79.8 kg·ng·h/mL/mg. For the same compound, the “AUC—% Extrap_obs” value ([2]; listed as TLZ-16 HC1, 10 mg/kg) was 0.101% and 6.34% and 4.66%, the Cmax ([2]; listed as TLZ-16 HC1, 10 mg/kg) was 236 ng/mL and 239 ng/mL and 385 ng/mL and the MRTInf_obs ([2]; listed as TLZ-16 HC1, 10 mg/kg) was 4.53 h and 2.86 h and 2.58 h. For the same compound, the T1/2 ([2]; listed as TLZ-16 HC1, 10 mg/kg) was 2.39 h and 1.98 h and 1.92 h, the “AUCInf, Mean” value [2] was 919 ng·h/mL and the “AUClast, Mean” value [2] was 891 ng·h/mL. The AUClast/D, Mean [2] was 89 kg·ng·h/mL/mg, the “AUC—% Extrap_obs, Mean” value [2] was 3.70% and the “Cmax, Mean” value [2] was 287 ng/mL. The “MRTInf_obs, Mean” value [2] was 3.32 h, the “T1/2, Mean” value [2] was 2.09 h and the “Tmax, Mean” value [2] was 0.250 h. The “hygroscopicity (DVS)” value [3] was “slightly hygroscopic”, the “solid form after DVS test” value [3] was “does not change” and the “water absorbed in DVS” value [3] was “about 0.57%”.
With `COc1cc2c(cc1OC)[C@@H]1Cc3ccc(O)c(OC)c3CN1CC2.O=C(O)/C=C\C(=O)O` [TLZ-16 maleate] the solubility in water [1] was “approximately 11.0 mg/mL”, the F [2] was 21.7% and 33.4% and 21.3% and the “F, Mean” value [2] was 25.5%. For the same compound, the concentration in plasma ([2]; 0 h) was “BLOQ (BLOQ = below limit of quantitation (0.2 ng/mL))”, the concentration in plasma ([2]; 0.25 h, 10 mg/kg) was 138 ng/mL and 257 ng/mL and 438 ng/mL and the “concentration in plasma, Mean” value ([2]; 0.25 h) was 278 ng/mL. For the same compound, the concentration in plasma ([2]; 0.5 h, 10 mg/kg) was 132 ng/mL and 290 ng/mL and 287 ng/mL, the “concentration in plasma, Mean” value ([2]; 0.5 h) was 236 ng/mL and the concentration in plasma ([2]; 1 h, 10 mg/kg) was 118 ng/mL and 206 ng/mL and 176 ng/mL. The “concentration in plasma, Mean” value ([2]; 1 h) was 167 ng/mL, the concentration in plasma ([2]; 2 h, 10 mg/kg) was 106 ng/mL and 175 ng/mL and 55.8 ng/mL and the “concentration in plasma, Mean” value ([2]; 2 h) was 112 ng/mL. The concentration in plasma ([2]; 4 h, 10 mg/kg) was 104 ng/mL and 116 ng/mL and 69.3 ng/mL, the “concentration in plasma, Mean” value ([2]; 4 h) was 96.4 ng/mL and the concentration in plasma ([2]; 8 h, 10 mg/kg) was 40.8 ng/mL and 34.5 ng/mL and 34.1 ng/mL. The “concentration in plasma, Mean” value ([2]; 8 h) was 36.5 ng/mL, the concentration in plasma ([2]; 24 h) was “BLOQ (BLOQ = below limit of quantitation (0.2 ng/mL))” and the AUCInf ([2]; 10 mg/kg) was 965 ng·h/mL and 1132 ng·h/mL and 898 ng·h/mL. The AUClast ([2]; 10 mg/kg) was 725 ng·h/mL and 1007 ng·h/mL and 709 ng·h/mL, the AUClast/D ([2]; 10 mg/kg) was 72.5 kg·ng·h/mL/mg and 101 kg·ng·h/mL/mg and 70.9 kg·ng·h/mL/mg and the “AUC—% Extrap_obs” value ([2]; 10 mg/kg) was 24.9% and 11.1% and 21.0%. For the same compound, the Cmax ([2]; 10 mg/kg) was 138 ng/mL and 290 ng/mL and 438 ng/mL, the MRTInf_obs ([2]; 10 mg/kg) was 5.88 h and 3.67 h and 4.80 h and the T1/2 ([2]; 10 mg/kg) was 4.08 h and 2.52 h and 3.83 h. For the same compound, the Tmax ([2]; 10 mg/kg) was 0.25 h (2×) and 0.5 h, the “AUCInf, Mean” value [2] was 998 ng·h/mL and the “AUClast, Mean” value [2] was 814 ng·h/mL. For the same compound, the AUClast/D, Mean [2] was 81 kg·ng·h/mL/mg, the “AUC—% Extrap_obs, Mean” value [2] was 19.0% and the “Cmax, Mean” value [2] was 289 ng/mL. For the same compound, the “MRTInf_obs, Mean” value [2] was 4.78 h, the “T1/2, Mean” value [2] was 3.48 h and the “Tmax, Mean” value [2] was 0.333 h. For the same compound, the “hygroscopicity (DVS)” value [3] was “slightly hygroscopic”, the “solid form after DVS test” value [3] was “does not change” and the “water absorbed in DVS” value [3] was “about 0.085 wt %”.
